Source: patent US12577239B2, “Sulfilimines or sulfoximines containing fungicidal heterocyclic compounds” (PI INDUSTRIES LTD., priority 2019, dated 2026)

What follows are compounds tested on Phytophthora infestans (assay: microbe, parasite or virus in culture). Conditions: 168 h, read-out: control compared to the untreated check.
Type: cell-based

| Compound | inhibition of growth at 30 ppm [%] |
| --- | --- |
| CS(=N)(=O)c1cccc(Cl)c1C1CC(c2csc(C3CCN(C(=O)Cn4cc(C(F)(F)F)ccc4=O)CC3)n2)=NO1 (centres unmarked) [Compound 169, 1-(2-(4-(4-(5-(2-chloro-6-(S-methylsulfonimidoyl)phenyl)-4,5-dihydroisoxazol-3-yl)thiazol-2-yl)piperidin-1-yl)-2-oxoethyl)-5-(trifluoromethyl)pyridin-2(1H)-one] | ≥ 70 |
| CS(=N)(=O)c1cccc(Cl)c1C1CC(c2csc(C3CCN(C(=O)Cn4cc(Cl)cc(C(F)(F)F)c4=O)CC3)n2)=NO1 (centres unmarked) [Compound 1, 5-chloro-1-(2-(4-(4-(5-(2-chloro-6-(S-methylsulfonimidoyl)phenyl)-4,5-dihydroisoxazol-3-yl)thiazol-2-yl)piperidin-1-yl)-2-oxoethyl)-3-(trifluoromethyl)pyridin-2(1H)-one] | ≥ 70 |
| Cc1cc(C(F)(F)F)nn1CC(=O)N1CCC(c2nc(C3=NOC(c4c(F)cccc4N=S(C)(C)=O)C3)cs2)CC1 (centres unmarked) [Compound 6, ((3-fluoro-2-(3-(2-(1-(2-(5-methyl-3-(trifluoromethyl)-1H-pyrazol-1-yl)acetyl)piperidin-4-yl)thiazol-4-yl)-4,5-dihydroisoxazol-5-yl)phenyl)imino)dimethyl-λ^6-sulfanone] | ≥ 70 |
| CN=S(C)(=O)c1cccc(Cl)c1C1CC(c2csc(C3CCN(C(=O)Cn4c(C)ccc(C(F)(F)F)c4=O)CC3)n2)=NO1 (centres unmarked) [Compound 174] | ≥ 70 |
| CS(=N)(=O)c1cccc(Cl)c1C1CC(c2csc(C3CCN(C(=O)Cn4nc(C(F)F)cc4C(F)F)CC3)n2)=NO1 (centres unmarked) [Compound 3, (2-(3-(2-(1-(2-(3,5-bis (difluoromethyl)-1H-pyrazol-1-yl)acetyl)piperidin-4-yl)thiazol-4-yl)-4,5-dihydroisoxazol-5-yl)-3-chlorophenyl) (imino) (methyl)-λ^6-sulfanone] | ≥ 70 |
| CS(=N)(=O)c1cccc(Cl)c1C1CC(c2csc(C3CCN(C(=O)Cn4cc(C(F)(F)F)cc(Cl)c4=O)CC3)n2)=NO1 (centres unmarked) [Compound 2, 3-chloro-1-(2-(4-(4-(5-(2-chloro-6-(S-methylsulfonimidoyl)phenyl)-4,5-dihydroisoxazol-3-yl)thiazol-2-yl)piperidin-1-yl)-2-oxoethyl)-5-(trifluoromethyl)pyridin-2(1H)-one] | ≥ 70 |
| CS(=N)(=O)c1cccc(C#N)c1C1CC(c2csc(C3CCN(C(=O)Cn4nc(C(F)F)cc4C(F)F)CC3)n2)=NO1 (centres unmarked) [Compound 164] | ≥ 70 |
| CC(C)S(=N)(=O)c1cccc(Cl)c1C1CC(c2csc(C3CCN(C(=O)Cn4ccnc(C(F)(F)F)c4=O)CC3)n2)=NO1 (centres unmarked) [Compound 64] | ≥ 70 |
